Reference: patent EP4635500A1, “THERAPEUTIC AGENT FOR BACTERIAL INFECTION” (Sumitomo Pharma Co., Ltd., priority 2022, dated 2024)
Converted amounts (≈) assume the structure as drawn. Where two headings read alike, the source gives them in different places.

System: Enterobacterales
Assay: MIC, broth microdilution, CDC/FDA Antibiotic Resistance Isolate Bank (Example 7, Tables 8, 11, 12)
Format: cell-based

CN(C)c1cc(NC(=O)CNC(C)(C)C)c(O)c2c1C[C@H]1C[C@H]3[C@H](N(C)C)C(=O)C(C(N)=O)=C(O)[C@@]3(O)C(=O)C1=C2O [Tigecyeline]
MIC (Citrobacter freundii, KUB No. 5654, AR Bank # 157, read-out: MIC): 0.5 µg/mL (≈ 0.854 µM)
MIC (Enterobacter cloacae, Enterobacter cloacae KUB No. 5792, AR Bank #448): 1 µg/mL (≈ 1.71 µM)
MIC (Enterobacter cloacae, Enterobacter cloacae KUB No. 5807, AR Bank #501): 1 µg/mL (≈ 1.71 µM)
MIC (Enterobacter cloacae, Enterobacter cloacae KUB No. 5808, AR Bank #502): 4 µg/mL (≈ 6.83 µM)
MIC (Enterobacter cloacae, Enterobacter cloacae group, KUB No. 5629, AR Bank # 132): 0.5 µg/mL (≈ 0.854 µM)
MIC (Enterobacter cloacae, KUB No. 5529, AR Bank# 32): 1 µg/mL (≈ 1.71 µM)
MIC (Enterobacter cloacae, KUB No. 5535, AR Bank# 38): 4 µg/mL (≈ 6.83 µM)
MIC (Enterobacter cloacae, KUB No. 5547, AR Bank# 50): 0.25 µg/mL (≈ 0.427 µM)
MIC (Enterobacter cloacae, KUB No. 5550, AR Bank# 53): 1 µg/mL (≈ 1.71 µM)
MIC (Enterobacter cloacae, KUB No. 5557, AR Bank# 60): 0.25 µg/mL (≈ 0.427 µM)
MIC (Enterobacter cloacae, KUB No. 5562, AR Bank # 65): 0.5 µg/mL (≈ 0.854 µM)
MIC (Enterobacter cloacae, KUB No. 5569, AR Bank # 72): 2 µg/mL (≈ 3.41 µM)
MIC (Enterobacter cloacae, KUB No. 5570, AR Bank # 73): 1 µg/mL (≈ 1.71 µM)
MIC (Enterobacter cloacae, KUB No. 5590, AR Bank # 93): 0.5 µg/mL (≈ 0.854 µM)
MIC (Enterobacter cloaccae, KUB No. 5651, AR Bank # 154): 0.5 µg/mL (≈ 0.854 µM)
MIC (Enterobacter clooreae, KUB No. 5633, AR Bank # 136): 2 µg/mL (≈ 3.41 µM)
MIC (Escherichia coli, Escherichia coli KUB No. 5783, AR Bank #437): 1 µg/mL (≈ 1.71 µM)
MIC (Escherichia coli, Escherichia coli KUB No. 5794, AR Bank #450): 0.5 µg/mL (≈ 0.854 µM)
MIC (Escherichia coli, Escherichia coli KUB No. 5795, AR Bank #451): 0.5 µg/mL (≈ 0.854 µM)
MIC (Escherichia coli, Escherichia coli KUB No. 5796, AR Bank #452): 0.5 µg/mL (≈ 0.854 µM)
MIC (Escherichia coli, Escherichia coli KUB No. 5803, AR Bank #861): 0.25 µg/mL (≈ 0.427 µM)
MIC (Escherichia coli, KUB No. 5558, AR Bank # 61): 0.25 µg/mL (≈ 0.427 µM)
MIC (Escherichia coli, KUB No. 5564, AR Bank # 67): 0.25 µg/mL (≈ 0.427 µM)
MIC (Escherichia coli, KUB No. 5566, AR Bank # 69): 0.25 µg/mL (≈ 0.427 µM)
MIC (Escherichia coli, KUB No. 5574, AR Bank # 77): 0.12 µg/mL (≈ 0.205 µM)
MIC (Escherichia coli, KUB No. 5578, AR Bank # 81): 0.12 µg/mL (≈ 0.205 µM)
MIC (Escherichia coli, KUB No. 5581, AR Bank # 84): 0.12 µg/mL (≈ 0.205 µM)
MIC (Escherichia coli, KUB No. 5582, AR Bank # 85): 0.25 µg/mL (≈ 0.427 µM)
MIC (Escherichia coli, KUB No. 5583, AR Bank # 86): 0.5 µg/mL (≈ 0.854 µM)
MIC (Escherichia coli, KUB No. 5586, AR Bank # 89): 0.25 µg/mL (≈ 0.427 µM)
MIC (Escherichia coli, KUB No. 5601, AR Bank # 104): 0.12 µg/mL (≈ 0.205 µM)
MIC (Escherichia coli, KUB No. 5611, AR Bank # 114): 0.12 µg/mL (≈ 0.205 µM)
MIC (Escherichia coli, KUB No. 5615, AR Bank # 118): 0.12 µg/mL (≈ 0.205 µM)
MIC (Escherichia coli, KUB No. 5616, AR Bank # 119): 0.5 µg/mL (≈ 0.854 µM)
MIC (Escherichia coli, KUB No. 5625, AR Bank # 128): 0.12 µg/mL (≈ 0.205 µM)
MIC (Escherichia coli, KUB No. 5634, AR Bank # 137): 0.5 µg/mL (≈ 0.854 µM)
MIC (Escherichia coli, KUB No. 5646, AR Bank # 149): 0.25 µg/mL (≈ 0.427 µM)
MIC (Escherichia coli, KUB No. 5647, AR Bank # 150): 0.25 µg/mL (≈ 0.427 µM)
MIC (Escherichia coli, KUB No. 5648, AR Bank # 151): 0.25 µg/mL (≈ 0.427 µM)
MIC (Escherichia coli, KUB No. 5659, AR Bank # 162): 0.5 µg/mL (≈ 0.854 µM)
MIC (Klebsiella aerogenes, Enterobacter aerogenes, KUB No. 5559, AR Bank # 62): 2 µg/mL (≈ 3.41 µM)
MIC (Klebsiella aerogenes, Enterobacter aerogenes, KUB No. 5571, AR Bank # 74): 0.25 µg/mL (≈ 0.427 µM)
MIC (Klebsiella aerogenes, Enterobacter aerogenes, KUB No. 5658, AR Bank # 161): 1 µg/mL (≈ 1.71 µM)
MIC (Klebsiella oxytoca, KUB No. 5568, AR Bank # 71): 1 µg/mL (≈ 1.71 µM)
MIC (Klebsiella oxytoca, KUB No. 5644, AR Bank # 147): 0.5 µg/mL (≈ 0.854 µM)
MIC (Klebsiella ozaenae, KUB No. 5548, AR Bank# 51): 1 µg/mL (≈ 1.71 µM)
MIC (Klebsiella ozaenae, KUB No. 5593, AR Bank # 96): 0.5 µg/mL (≈ 0.854 µM)
MIC (Klebsiella pneumoniae, KUB No. 55, AR Bank# 47): 0.5 µg/mL (≈ 0.854 µM)
MIC (Klebsiella pneumoniae, KUB No. 5531, AR Bank# 34): 0.5 µg/mL (≈ 0.854 µM)
MIC (Klebsiella pneumoniae, KUB No. 5536, AR Bank# 39): 1 µg/mL (≈ 1.71 µM)
MIC (Klebsiella pneumoniae, KUB No. 5537, AR Bank# 40): 2 µg/mL (≈ 3.41 µM)
MIC (Klebsiella pneumoniae, KUB No. 5538, AR Bank# 41): 1 µg/mL (≈ 1.71 µM)
MIC (Klebsiella pneumoniae, KUB No. 5540, AR Bank# 43): 0.5 µg/mL (≈ 0.854 µM)
MIC (Klebsiella pneumoniae, KUB No. 5541, AR Bank# 44): 0.5 µg/mL (≈ 0.854 µM)
MIC (Klebsiella pneumoniae, KUB No. 5543, AR Bank# 46): 2 µg/mL (≈ 3.41 µM)
MIC (Klebsiella pneumoniae, KUB No. 5546, AR Bank# 49): 4 µg/mL (≈ 6.83 µM)
MIC (Klebsiella pneumoniae, KUB No. 5563, AR Bank # 66): 2 µg/mL (≈ 3.41 µM)
MIC (Klebsiella pneumoniae, KUB No. 5565, AR Bank # 68): 2 µg/mL (≈ 3.41 µM)
MIC (Klebsiella pneumoniae, KUB No. 5572, AR Bank # 75): 2 µg/mL (≈ 3.41 µM)
MIC (Klebsiella pneumoniae, KUB No. 5573, AR Bank # 76): 0.25 µg/mL (≈ 0.427 µM)
